From patent US11384079B2, “6-5 fused rings as C5a inhibitors” (CHEMOCENTRYX, INC., priority 2017, dated 2022)

The compounds below were run against T1, C5aR (Homo sapiens, UniProt P21730) (assay: chemotaxis assay (C5aR mediated migration)). Settings: migration of U937 or neutrophil cells toward C5a (0.03 nM), 1.5 hours at 37° C., read-out: Mig IC50.
T1 construct: U937 cells are a monocytic cell line which express C5aR; host or cells: U937 cells (cAMP treated) or isolated neutrophils
T1 sequence (P21730 1-350): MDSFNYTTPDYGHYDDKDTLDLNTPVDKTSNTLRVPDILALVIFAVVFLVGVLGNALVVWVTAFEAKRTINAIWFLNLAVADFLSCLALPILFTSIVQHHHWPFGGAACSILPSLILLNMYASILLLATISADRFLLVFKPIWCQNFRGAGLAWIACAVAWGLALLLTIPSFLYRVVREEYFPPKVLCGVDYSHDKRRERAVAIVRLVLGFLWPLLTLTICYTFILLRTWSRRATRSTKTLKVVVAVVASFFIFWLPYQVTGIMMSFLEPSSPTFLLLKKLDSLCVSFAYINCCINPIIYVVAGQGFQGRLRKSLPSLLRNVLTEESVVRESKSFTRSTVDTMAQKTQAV
Format: cell-based
Summary of the method: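 Migration of cAMP-treated U937 cells (0.5 mM overnight), or of human or murine neutrophils, toward C5a was measured through 5 μm polycarbonate filters in HBSS with 1% FBS. SDF-1α served as a specificity control. After 1.5 h at 37 °C, lower-chamber cells were counted directly or by CyQuant.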

| Compound | IC50 |
| --- | --- |
| Cc1cccc(C)c1-n1nc2c(c1-c1ccc(Cl)c3[nH]ccc13)CN(c1ncc(C(C)C)cc1F)CC2 [Example 1.153] | 5 to 50 nM |
| Cc1cccc(OCC(C)C)c1-n1nc2c(c1-c1ccc3[nH]ccc3c1)CN(c1ncc(C(F)(F)F)cc1Cl)CC2 [Example 1.216] | 5 to 50 nM |
| CCc1cccc(CC)c1-n1nc2c(c1-c1ncc(Cl)c3[nH]ccc13)CN(c1ncc(C(F)(F)F)cn1)CC2 [Example 1.008] | < 5 nM |
| CCc1cccc(CC)c1-n1nc2c(c1-c1cc(F)c(F)c3[nH]ccc13)CN(c1ncc(C(F)(F)F)cn1)CC2 [Example 1.118] | 5 to 50 nM |
| Cc1cccc(OCC(C)C)c1-n1nc2c(c1-c1cccc3[nH]ccc13)CN(c1ncc(C(F)(F)F)cc1F)CC2 [Example 1.229] | 5 to 50 nM |
| Cc1cccc(OCC(C)C)c1-n1nc2c(c1-c1ccc3[nH]ccc3c1)CN(CC(C)(C)C)CC2 [Example 1.237] | < 5 nM |
| Cc1cccc(C)c1-n1nc2c(c1-c1c(F)cc(CO)c3[nH]ccc13)CN(c1ncc(C(F)(F)F)cn1)CC2 [Example 1.090] | 5 to 50 nM |
| CCc1cccc(CC)c1-n1nc2c(c1-c1c(F)cc(Cl)c3[nH]ccc13)CN(c1ncc(C3CC3)cc1F)CC2 [Example 1.062] | < 5 nM |
| CCc1cccc(CC)c1-n1nc2c(c1-c1cc(F)c3[nH]ccc3c1)CN(c1ncc(C(F)(F)F)cc1F)CC2 [Example 1.083] | 5 to 50 nM |
| CCc1cccc(CC)c1-n1nc2c(c1-c1ccc(Cl)c3[nH]ccc13)CN(c1ncc(C3CC3)cc1Cl)CC2 [Example 1.073] | < 5 nM |
| CCc1cccc(CC)c1-n1nc2c(c1-c1ccc(Cl)c3[nH]ccc13)CN(c1nccc(C)n1)CC2 [Example 1.110] | 5 to 50 nM |
| CCC(CC)N1CCc2nn(-c3c(C)cccc3OCC(C)C)c(-c3ccc4[nH]ccc4c3)c2C1 [Example 1.207] | 5 to 50 nM |
| Cc1cccc(OCC(C)C)c1-n1nc2c(c1-c1ccc3[nH]ccc3c1)CN(Cc1cc(Cl)ccc1C(F)(F)F)CC2 [Example 1.203] | 5 to 50 nM |
| CCc1cccc(CC)c1-n1nc2c(c1-c1ccc(C(=O)OC)c3[nH]ccc13)CN(c1ncc(C(F)(F)F)cc1F)CC2 [Example 1.172] | < 5 nM |
| Cc1cccc(C)c1-n1nc2c(c1-c1c(F)cc(Cl)c3[nH]ccc13)CN(c1ncc(C(F)(F)F)cn1)CC2 [Example 1.122] | 5 to 50 nM |
| CCc1cccc(CC)c1-n1nc2c(c1-c1c(F)cc(Cl)c3[nH]ccc13)CN(c1ccc(C(F)(F)F)cn1)CC2 [Example 1.133] | < 5 nM |
| CCc1cccc(CC)c1-n1nc2c(c1-c1cc(Cl)c(OC)c3[nH]ccc13)CN(c1ncc(C(F)(F)F)cn1)CC2 [Example 1.044] | < 5 nM |
| CCc1cccc(CC)c1-n1nc2c(c1-c1c(F)cc(Cl)c3[nH]ccc13)CN(c1ncc(C(=O)N3CCCC3)cn1)CC2 [Example 1.076] | < 5 nM |
| CCc1cccc(CC)c1-n1nc2c(c1-c1ccc(C)c3[nH]cc(Cl)c13)CN(c1ncc(C(F)(F)F)cc1F)CC2 [Example 1.170] | < 5 nM |
